Target: MAPK14 (p38 alpha) (Homo sapiens, UniProt Q16539)
Experiment: Z′-LYTE FRET kinase assay (SelectScreen, MAPK14 direct, Ser/Thr […] peptide)
Assay type: biochemical

MAPK14 (p38 alpha), sequence (Q16539 2-360): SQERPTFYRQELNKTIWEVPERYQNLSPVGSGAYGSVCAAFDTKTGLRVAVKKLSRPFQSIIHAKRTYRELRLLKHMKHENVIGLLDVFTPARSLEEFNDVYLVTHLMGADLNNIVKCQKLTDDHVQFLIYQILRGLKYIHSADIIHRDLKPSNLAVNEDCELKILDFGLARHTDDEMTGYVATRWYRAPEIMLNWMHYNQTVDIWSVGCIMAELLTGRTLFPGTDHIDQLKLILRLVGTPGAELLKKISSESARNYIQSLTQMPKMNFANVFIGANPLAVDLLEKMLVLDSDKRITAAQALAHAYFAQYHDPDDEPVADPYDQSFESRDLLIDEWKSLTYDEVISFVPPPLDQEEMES

IC50: ~5.15 µM
Compound: C=C1C(=O)OC2C1C(OC(C)=O)C/C(C)=C/CC(OC(C)=O)/C(C)=C/CC(OC(C)=O)C1(C)OC21 (stereo not shown) [crassolide]
